Measured values as given in patent US10364245B2 (CHIESI FARMACEUTICI S.p.A., priority 2017, dated 2019).
pIC50: −log10 of the molar value.

What was measured:
[1] = test system: Peripheral Blood Mononuclear Cells (PBMCs), TNFα release; test: LPS-stimulated PBMC TNFα release assay; assay type: cell-based; conditions: human PBMC, LPS (10 ng/ml), 18 h, compound 1 h before LPS; read-out: LPS-stimulated PBMC TNFα release inhibition
Procedure, shortened: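 TNFα in cell-free supernatant, read on MSD plates, gave % inhibition curves and IC50 (≥3 separate experiments). Healthy-donor PBMCs had 1 h compound exposure at 37 °C in 1% FBS medium, then 18 h stimulation with 10 ng/ml LPS, after a 3 h serum-free rest.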

[2] = target: T1, p38 alpha (Homo sapiens, UniProt Q16539); test: P38 alpha enzyme inhibition assay (Alphascreen kinase activity assay); assay type: biochemical; conditions: 100 pM p38 alpha, 2 hours preincubation at 25° C., 250 μM ATP, ATF-2 fusion protein; read-out: p38α inhibition
T1 construct: purchased Invitrogen PV3304
T1 sequence (Q16539 whole entry, the tested form may be a part): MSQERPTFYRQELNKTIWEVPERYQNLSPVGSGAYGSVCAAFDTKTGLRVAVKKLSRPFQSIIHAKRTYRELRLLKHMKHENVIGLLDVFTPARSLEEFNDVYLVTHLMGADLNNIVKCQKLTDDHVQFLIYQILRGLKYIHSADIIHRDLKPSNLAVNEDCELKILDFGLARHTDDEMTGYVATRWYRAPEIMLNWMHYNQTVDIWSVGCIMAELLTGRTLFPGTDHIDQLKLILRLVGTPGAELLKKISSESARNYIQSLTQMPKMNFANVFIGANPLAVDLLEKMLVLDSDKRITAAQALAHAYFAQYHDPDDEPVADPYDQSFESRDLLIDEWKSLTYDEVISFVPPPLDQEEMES
Procedure, shortened: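 Phosphorylation of ATF-2 fusion protein (0.3 μg/ml) read by AlphaScreen with anti-phospho-ATF2 antibody after 1 h kinase reaction at 25 °C, initiated by 250 μM ATP. Compounds first incubated 2 h at 25 °C with 100 pM p38 alpha in pH 7.5 HEPES buffer, 1% DMSO. IC50 derived from concentration-response data.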

Structure (SMILES)	pIC50 [2]	pIC50 [1]
CC(C)(C)c1cc(NC(=O)N[C@H]2CC[C@@H](Oc3ccc4nnc(C(C)(C)C)n4c3)c3ccccc32)nc(C(=O)NCCN2CC(O)C2)n1 [Example 78, 4-(tert-butyl)-6-(3-((1S,4R)-4-((3-(tert-butyl)-[1,2,4]triazolo[4,3-a]pyridin-6-yl)oxy)-1,2,3,4-tetrahydronaphthalen-1-yl)ureido)-N-(2-(3-hydroxyazetidin-1-yl)ethyl)pyrimidine-2-carboxamide]	> 9.00	< 8.30
CN(CCO)C(=O)c1nc(NC(=O)N[C@H]2CC[C@@H](Oc3ccc4nnc(C(C)(C)C)n4c3)c3ccccc32)cc(C(C)(C)C)n1 [Example 82, 4-(tert-butyl)-6-(3-((1S,4R)-4-((3-(tert-butyl)-[1,2,4]triazolo[4,3-a]pyridin-6-yl)oxy)-1,2,3,4-tetrahydronaphthalen-1-yl)ureido)-N-(2-hydroxyethyl)-N-methylpyrimidine-2-carboxamide]	8.00 to 9.00	< 8.30
CCC(CC)c1nnc2ccc(O[C@@H]3CC[C@H](NC(=O)Nc4cc(C(C)(C)C)nc(C(=O)NCCN(CCOC)CCOC)n4)c4ccccc43)cn12 [Example 85, N-(2-(bis(2-methoxyethyl)amino)ethyl)-4-(tert-butyl)-6-(3-((1S,4R)-4-((3-(pentan-3-yl)-[1,2,4]triazolo[4,3-a]pyridin-6-yl)oxy)-1,2,3,4-tetrahydronaphthalen-1-yl)ureido)pyrimidine-2-carboxamide]	> 9.00	< 8.30
COCCN(CCOC)Cc1nc(NC(=O)N[C@H]2CC[C@@H](Oc3ccc4nnc(C(C)(C)C)n4c3)c3ccccc32)cc(C(C)(C)C)n1 [Example 86, 1-(2-((bis(2-methoxyethyl)amino)methyl)-6-(tert-butyl)pyrimidin-4-yl)-3-((1S,4R)-4-((3-(tert-butyl)-[1,2,4]triazolo[4,3-a]pyridin-6-yl)oxy)-1,2,3,4-tetrahydronaphthalen-1-yl)urea]	8.00 to 9.00	< 8.30
CN(CCO)Cc1nc(NC(=O)N[C@H]2CC[C@@H](Oc3ccc4nnc(C(C)(C)C)n4c3)c3ccccc32)cc(C(C)(C)C)n1 [Example 88, 1-(6-(tert-butyl)-2-(((2-hydroxyethyl)(methyl)amino)methyl)pyrimidin-4-yl)-3-((1S,4R)-4-((3-(tert-butyl)-[1,2,4]triazolo[4,3-a]pyridin-6-yl)oxy)-1,2,3,4-tetrahydronaphthalen-1-yl)urea]	8.00 to 9.00	< 8.30
CC(C)(C)c1cc(NC(=O)N[C@H]2CC[C@@H](Oc3ccc4nnc(C(C)(C)C)n4c3)c3ccccc32)nc(C(=O)NCCN2CCCOCC2)n1 [Example 89, N-(2-(1,4-oxazepan-4-yl)ethyl)-4-(tert-butyl)-6-(3-((1S,4R)-4-((3-(tert-butyl)-[1,2,4]triazolo[4,3-a]pyridin-6-yl)oxy)-1,2,3,4-tetrahydronaphthalen-1-yl)ureido)pyrimidine-2-carboxamide]	8.00 to 9.00	8.30 to 9.00
CC(C)Cc1nnc2ccc(O[C@@H]3CC[C@H](NC(=O)Nc4cc(C(C)(C)C)nc(C(=O)NCCN(C)C)n4)c4ccccc43)cn12 [Example 91, 4-(tert-butyl)-N-(2-(dimethylamino)ethyl)-6-(3-((1S,4R)-4-((3-isobutyl-[1,2,4]triazolo[4,3-a]pyridin-6-yl)oxy)-1,2,3,4-tetrahydronaphthalen-1-yl)ureido)pyrimidine-2-carboxamide]	8.00 to 9.00	< 8.30
CC(C)(C)c1cc(NC(=O)N[C@H]2CC[C@@H](Oc3ccc4nnc(C(C)(C)C)n4c3)c3ccccc32)nc(C(=O)NCCN2CC[C@H](O)C2)n1 [Example 94, 4-(tert-butyl)-6-(3-((1S,4R)-4-((3-(tert-butyl)-[1,2,4]triazolo[4,3-a]pyridin-6-yl)oxy)-1,2,3,4-tetrahydronaphthalen-1-yl)ureido)-N-(2-((S)-3-hydroxypyrrolidin-1-yl)ethyl)pyrimidine-2-carboxamide]	> 9.00	< 8.30
COC(C)(C)c1nnc2ccc(O[C@@H]3CC[C@H](NC(=O)Nc4cc(C(C)(C)C)nc(C(=O)NCCN(C)C)n4)c4ccccc43)cn12 [Example 96, 4-(tert-butyl)-N-(2-(dunethylamino)ethyl)-6-(3-((1S,4R)-4-((3-(2-methoxypropan-2-yl)-[1,2,4]triazolo[4,3-a]pyridin-6-yl)oxy)-1,2,3,4-tetrahydronaphthalen-1-yl)ureido)pyrimidine-2-carboxamide]	8.00 to 9.00	8.30 to 9.00
COCC(C)(C)c1nnc2ccc(O[C@@H]3CC[C@H](NC(=O)Nc4cc(C(C)(C)C)nc(C(=O)NCCN5CCOCC5)n4)c4ccccc43)cn12 [Example 97, 4-(tert-butyl)-6-(3-((1S,4R)-4-((3-(1-methoxy-2-methylpropan-2-yl)-[1,2,4]triazolo[4,3-a]pyridin-6-yl)oxy)-1,2,3,4-tetrahydronaphthalen-1-yl)ureido)-N-(2-morpholinoethyl)-pyrimidine-2-carboxamide]	> 9.00	< 8.30

Second part, led by results:

pIC50 [2]	Structure (SMILES)	pIC50 [1]
8.00 to 9.00	CC(C)(C)c1cc(NC(=O)N[C@H]2CC[C@@H](Oc3ccc4nnc(C(C)(C)C)n4c3)c3ccccc32)nc(C(=O)NCCCN2CCOCC2)n1 [Example 80, 4-(tert-butyl)-6-(3-((1S,4R)-4-((3-(tert-butyl)-[1,2,4]triazolo[4,3-a]pyridin-6-yl)oxy)-1,2,3,4-tetrahydronaphthalen-1-yl)ureido)-N-(3-morpholinopropyl)-pyrimidine-2-carboxamide]	8.30 to 9.00
> 9.00	CN1CC(NC(=O)c2nc(NC(=O)N[C@H]3CC[C@@H](Oc4ccc5nnc(C(C)(C)C)n5c4)c4ccccc43)cc(C(C)(C)C)n2)C1 [Example 81, 4-(tert-butyl)-6-(3-((1S,4R)-4-((3-(tert-butyl)-[1,2,4]triazolo[4,3-a]pyridin-6-yl)oxy)-1,2,3,4-tetrahydronaphthalen-1-yl)ureido)-N-(1-methylazetidin-3-yl)pyrimidine-2-carboxamide]	< 8.30
> 9.00	CC(C)(C)c1cc(NC(=O)N[C@H]2CC[C@@H](Oc3ccc4nnc(C(C)(C)C)n4c3)c3ccccc32)nc(C(=O)N[C@H]2C[C@H](CO)C2)n1 [Example 83, 4-(tert-butyl)-6-(3-((1S,4R)-4-((3-(tert-butyl)-[1,2,4]triazolo[4,3-a]pyridin-6-yl)oxy)-1,2,3,4-tetrahydronaphthalen-1-yl)ureido)-N-((1s,3R)-3-(hydroxymethyl)-cyclobutyl)pyrimidine-2-carboxamide]	8.30 to 9.00
> 9.00	CCC(CC)c1nnc2ccc(O[C@@H]3CC[C@H](NC(=O)Nc4cc(C(C)(C)C)nc(C(=O)NC5CN(C)C5)n4)c4ccccc43)cn12 [Example 84, 4-(tert-butyl)-N-(1-methylazetidin-3-yl)-6-(3-((1S,4R)-4-((3-(pentan-3-yl)-[1,2,4]triazolo[4,3-a]pyridin-6-yl)oxy)-1,2,3,4-tetrahydronaphthalen-1-yl)ureido)pyrimidine-2-carboxamide]	< 8.30
> 9.00	CC(C)(C)c1cc(NC(=O)N[C@H]2CC[C@@H](Oc3ccc4nnc(C(C)(C)C)n4c3)c3ccccc32)nc(CN(CCO)CCO)n1 [Example 87, 1-(2-((bis(2-hydroxyethyl)amino)methyl)-6-(tert-butyl)pyrimidin-4-yl)-3-((1S,4R)-4-((3-(tert-butyl)-[1,2,4]triazolo[4,3-a]pyridin-6-yl)oxy)-1,2,3,4-tetrahydronaphthalen-1-yl)urea]	< 8.30
8.00 to 9.00	COCCN(CCNC(=O)c1nc(NC(=O)N[C@H]2CC[C@@H](Oc3ccc4nnc(C(C)(C)C)n4c3)c3ccccc32)cc(C(C)(C)C)n1)CCOC [Example 92, N-(2-(bis(2-methoxyethyl)amino)-ethyl)-4-(tert-butyl)-6-(3-((1S,4R)-4-((3-(tert-butyl)-[1,2,4]triazolo[4,3-a]pyridin-6-yl)oxy)-1,2,3,4-tetrahydronaphthalen-1-yl)ureido)pyrimidine-2-carboxamide]	< 8.30
> 9.00	CC(C)(C)c1cc(NC(=O)N[C@H]2CC[C@@H](Oc3ccc4nnc(C(C)(C)C)n4c3)c3ccccc32)nc(C(=O)NCCN2CC[C@@H](O)C2)n1 [Example 93, 4-(tert-butyl)-6-(3-((1S,4R)-4-((3-(tert-butyl)-[1,2,4]triazolo[4,3-a]pyridin-6-yl)oxy)-1,2,3,4-tetrahydronaphthalen-1-yl)ureido)-N-(2-((R)-3-hydroxypyrrolidin-1-yl)ethyl)pyrimidine-2-carboxamide]	< 8.30
8.00 to 9.00	COC(C)(C)c1nnc2ccc(O[C@@H]3CC[C@H](NC(=O)Nc4cc(C(C)(C)C)nc(C(=O)NCCN5CCOCC5)n4)c4ccccc43)cn12 [Example 95, 4-(tert-butyl)-6-(3-((1S,4R)-4-((3-(2-methoxypropan-2-yl)-[1,2,4]triazolo[4,3-a]pyridin-6-yl)oxy)-1,2,3,4-tetrahydronaphthalen-1-yl)ureido)-N-(2-morpholinoethyl)-pyrimidine-2-carboxamide]	< 8.30
8.00 to 9.00	CC(C)(C)Cc1nnc2ccc(O[C@@H]3CC[C@H](NC(=O)Nc4cc(C(C)(C)C)nc(C(=O)NCCN5CCOCC5)n4)c4ccccc43)cn12 [Example 99, 4-(tert-butyl)-N-(2-morpholinoethyl)-6-(3-((1S,4R)-4-((3-neopentyl-[1,2,4]triazolo[4,3-a]pyridin-6-yl)oxy)-1,2,3,4-tetrahydronaphthalen-1-yl)ureido)pyrimidine-2-carboxamide]	< 8.30
